Experiments:
Assay in all cases: relative viability (nuclei count vs DMSO), 5 days (fraction); higher = more cells survive
AZD8055 + Vorinostat = compound: COc1ccc(-c2ccc3c(N4CCOC[C@@H]4C)nc(N4CCOC[C@@H]4C)nc3n2)cc1CO [AZD8055] + O=C(CCCCCCC(=O)Nc1ccccc1)NO [Vorinostat] (partner 1 µM)
Method in brief: (§1)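 Lung cancer cell lines were pin-tool dosed in 1536-well plates on the day after seeding, with either a lone drug or a fixed anchor-drug dose plus five library-drug doses (not always all listed) in √10 steps. Nuclei were counted on 4× images after 5 days. Relative viability is the ratio of treated-well to vehicle-well nuclei counts, with each value a median of duplicate plates.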

AZD8055 + Pictilisib = compound: COc1ccc(-c2ccc3c(N4CCOC[C@@H]4C)nc(N4CCOC[C@@H]4C)nc3n2)cc1CO [AZD8055] + CS(=O)(=O)N1CCN(Cc2cc3nc(-c4cccc5[nH]ncc45)nc(N4CCOCC4)c3s2)CC1 [Pictilisib] (partner 1 µM)
Method in brief: as §1

AZD8055 + Crizotinib = compound: COc1ccc(-c2ccc3c(N4CCOC[C@@H]4C)nc(N4CCOC[C@@H]4C)nc3n2)cc1CO [AZD8055] + C[C@@H](Oc1cc(-c2cnn(C3CCNCC3)c2)cnc1N)c1c(Cl)ccc(F)c1Cl [Crizotinib] (partner 1 µM)
Method in brief: as §1

AZD8055 + Dasatinib = compound: COc1ccc(-c2ccc3c(N4CCOC[C@@H]4C)nc(N4CCOC[C@@H]4C)nc3n2)cc1CO [AZD8055] + Cc1nc(Nc2ncc(C(=O)Nc3c(C)cccc3Cl)s2)cc(N2CCN(CCO)CC2)n1 [Dasatinib] (partner 0.075 µM)
Method in brief: as §1

| Cell Line | relative viability (AZD8055 + Vorinostat; first compound 0.01 µM) | relative viability (AZD8055 + Vorinostat; first compound 0.03162 µM) | relative viability (AZD8055 + Vorinostat; first compound 0.1 µM) | relative viability (AZD8055 + Vorinostat; first compound 0.3162 µM) | relative viability (AZD8055 + Vorinostat; first compound 1 µM) | relative viability (AZD8055 + Pictilisib; first compound 0.01 µM) | relative viability (AZD8055 + Pictilisib; first compound 0.03162 µM) | relative viability (AZD8055 + Pictilisib; first compound 0.1 µM) | relative viability (AZD8055 + Pictilisib; first compound 0.3162 µM) | relative viability (AZD8055 + Pictilisib; first compound 1 µM) | relative viability (AZD8055 + Crizotinib; first compound 0.01 µM) | relative viability (AZD8055 + Crizotinib; first compound 0.03162 µM) | relative viability (AZD8055 + Crizotinib; first compound 0.1 µM) | relative viability (AZD8055 + Crizotinib; first compound 0.3162 µM) | relative viability (AZD8055 + Crizotinib; first compound 1 µM) | relative viability (AZD8055 + Dasatinib; first compound 0.01 µM) | relative viability (AZD8055 + Dasatinib; first compound 0.03162 µM) | relative viability (AZD8055 + Dasatinib; first compound 0.1 µM) | relative viability (AZD8055 + Dasatinib; first compound 0.3162 µM) | relative viability (AZD8055 + Dasatinib; first compound 1 µM) |
| --- | --- | --- | --- | --- | --- | --- | --- | --- | --- | --- | --- | --- | --- | --- | --- | --- | --- | --- | --- | --- |
| HCC-78 | 0.428 | 0.394 | 0.38 | 0.398 | 0.321 | 0.216 | 0.218 | 0.164 | 0.178 | 0.164 | 0.303 | 0.307 | 0.233 | 0.213 | 0.19 | 0.328 | 0.306 | 0.222 | 0.233 | 0.247 |
| HCC-366 | 0.372 | 0.205 | 0.182 | 0.0725 | 0.0602 | 0.0713 | 0.137 | 0.132 | 0.0885 | 0.0934 | 0.416 | 0.484 | 0.223 | 0.107 | 0.0921 | 0.719 | 0.401 | 0.241 | 0.0939 | 0.0948 |
| HCC-827 | 0.849 | 0.882 | 0.89 | 0.521 | 0.397 | 1.1 | 0.875 | 0.741 | 0.495 | 0.477 | 1 | 0.965 | 0.991 | 0.479 | 0.393 | 0.334 | 0.273 | 0.258 | 0.241 | 0.167 |
| HOP-62 | 0.636 | 0.413 | 0.587 | 0.298 | 0.183 | 0.878 | 0.534 | 0.582 | 0.246 | 0.259 | 0.837 | 0.853 | 0.71 | 0.387 | 0.345 | 0.741 | 0.554 | 0.556 | 0.272 | 0.171 |
| IA-LM | 0.814 | 0.758 | 0.524 | 0.172 | 0.127 | 0.221 | 0.217 | 0.118 | 0.0814 | 0.0826 | 0.923 | 0.472 | 0.347 | 0.0713 | 0.105 | – | – | – | – | – |
| LC-2-ad | 0.773 | 0.688 | 0.705 | 0.497 | 0.457 | 0.464 | 0.458 | 0.322 | 0.339 | 0.255 | 0.429 | 0.502 | 0.473 | 0.384 | 0.312 | 0.559 | 0.683 | 0.451 | 0.221 | 0.321 |
| LCLC-97TM1 | 0.751 | 0.585 | 0.414 | 0.354 | 0.308 | 0.172 | 0.107 | 0.106 | 0.108 | 0.176 | 0.365 | 0.352 | 0.154 | 0.158 | 0.193 | 0.873 | 0.748 | 0.761 | 0.393 | 0.445 |
| LCLC-103H | 0.825 | 0.765 | 0.619 | 0.445 | 0.437 | 0.612 | 0.572 | 0.546 | 0.52 | 0.332 | 1.04 | 0.918 | 0.719 | 0.807 | 0.484 | 0.412 | 0.315 | 0.379 | 0.2 | 0.211 |
| LK-2 | 0.3 | 0.172 | 0.271 | 0.167 | 0.157 | 0.571 | 0.438 | 0.368 | 0.335 | 0.195 | 0.231 | 0.188 | 0.267 | 0.205 | 0.211 | 0.215 | 0.188 | 0.175 | 0.185 | 0.185 |
| LOU-NH91 | 0.872 | 0.95 | 0.63 | 0.596 | 0.57 | 0.546 | 0.542 | 0.512 | 0.478 | 0.491 | 0.71 | 0.713 | 0.673 | 0.592 | 0.531 | 0.545 | 0.6 | 0.415 | 0.431 | 0.406 |
| LU99A | 0.385 | 0.259 | 0.225 | 0.186 | 0.153 | 0.281 | 0.18 | 0.168 | 0.195 | 0.22 | 0.517 | 0.329 | 0.234 | 0.233 | 0.232 | 0.432 | 0.324 | 0.314 | 0.173 | 0.268 |
| NCI-H522 | 0.898 | 0.731 | 0.876 | 0.666 | 0.499 | – | – | – | – | – | – | – | – | – | – | 0.864 | 0.831 | 0.907 | 0.625 | 0.535 |
| NCI-H1299 | – | – | – | – | – | 0.635 | 0.572 | 0.363 | 0.24 | 0.233 | 0.998 | 0.995 | 0.968 | 0.891 | 0.51 | – | – | – | – | – |
| NCI-H1395 | 0.683 | 0.448 | 0.621 | 0.422 | 0.461 | 0.587 | 0.535 | 0.636 | 0.478 | 0.425 | – | – | – | – | – | 0.405 | 0.376 | 0.37 | 0.31 | 0.292 |
| NCI-H1563 | – | – | – | – | – | 0.651 | 0.614 | 0.65 | 0.61 | 0.638 | 0.769 | 0.81 | 0.697 | 0.6 | 0.679 | 0.458 | 0.458 | 0.443 | 0.405 | 0.384 |
| NCI-H1648 | 0.501 | 0.451 | 0.293 | 0.287 | 0.273 | – | – | – | – | – | – | – | – | – | – | – | – | – | – | – |
| NCI-H1703 | – | – | – | – | – | 0.24 | 0.263 | 0.257 | 0.232 | 0.255 | 0.635 | 0.489 | 0.508 | 0.4 | 0.222 | – | – | – | – | – |
| NCI-H1792 | – | – | – | – | – | 0.235 | 0.229 | 0.142 | 0.112 | 0.094 | 0.927 | 0.82 | 0.82 | 0.173 | 0.157 | 0.844 | 0.667 | 0.583 | 0.321 | 0.237 |
| NCI-H1793 | 0.567 | 0.387 | 0.271 | 0.188 | 0.224 | 0.288 | 0.268 | 0.177 | 0.238 | 0.156 | – | – | – | – | – | 0.356 | 0.178 | 0.192 | 0.148 | 0.11 |
| NCI-H2342 | 0.766 | 0.702 | 0.651 | 0.501 | 0.53 | – | – | – | – | – | – | – | – | – | – | 0.316 | 0.288 | 0.268 | 0.293 | 0.304 |
